From patent US10351540B2, “1,2-dithiolane and dithiol compounds useful in treating mutant EGFR-mediated diseases and conditions” (Sabila Biosciences LLC, priority 2017, dated 2019)

Each compound was assayed against T1, EGFR (L858R) (Homo sapiens, UniProt P00533, L858R) (assay: KinaseSeeker competition binding assay, rabbit reticulocyte lysate (Method A)). Conditions: 7-point curve, duplicate.
T1 construct: made in house; host or cells: cell-free translation in rabbit reticulocyte lysate
T1 sequence (P00533 25-1210 L858R): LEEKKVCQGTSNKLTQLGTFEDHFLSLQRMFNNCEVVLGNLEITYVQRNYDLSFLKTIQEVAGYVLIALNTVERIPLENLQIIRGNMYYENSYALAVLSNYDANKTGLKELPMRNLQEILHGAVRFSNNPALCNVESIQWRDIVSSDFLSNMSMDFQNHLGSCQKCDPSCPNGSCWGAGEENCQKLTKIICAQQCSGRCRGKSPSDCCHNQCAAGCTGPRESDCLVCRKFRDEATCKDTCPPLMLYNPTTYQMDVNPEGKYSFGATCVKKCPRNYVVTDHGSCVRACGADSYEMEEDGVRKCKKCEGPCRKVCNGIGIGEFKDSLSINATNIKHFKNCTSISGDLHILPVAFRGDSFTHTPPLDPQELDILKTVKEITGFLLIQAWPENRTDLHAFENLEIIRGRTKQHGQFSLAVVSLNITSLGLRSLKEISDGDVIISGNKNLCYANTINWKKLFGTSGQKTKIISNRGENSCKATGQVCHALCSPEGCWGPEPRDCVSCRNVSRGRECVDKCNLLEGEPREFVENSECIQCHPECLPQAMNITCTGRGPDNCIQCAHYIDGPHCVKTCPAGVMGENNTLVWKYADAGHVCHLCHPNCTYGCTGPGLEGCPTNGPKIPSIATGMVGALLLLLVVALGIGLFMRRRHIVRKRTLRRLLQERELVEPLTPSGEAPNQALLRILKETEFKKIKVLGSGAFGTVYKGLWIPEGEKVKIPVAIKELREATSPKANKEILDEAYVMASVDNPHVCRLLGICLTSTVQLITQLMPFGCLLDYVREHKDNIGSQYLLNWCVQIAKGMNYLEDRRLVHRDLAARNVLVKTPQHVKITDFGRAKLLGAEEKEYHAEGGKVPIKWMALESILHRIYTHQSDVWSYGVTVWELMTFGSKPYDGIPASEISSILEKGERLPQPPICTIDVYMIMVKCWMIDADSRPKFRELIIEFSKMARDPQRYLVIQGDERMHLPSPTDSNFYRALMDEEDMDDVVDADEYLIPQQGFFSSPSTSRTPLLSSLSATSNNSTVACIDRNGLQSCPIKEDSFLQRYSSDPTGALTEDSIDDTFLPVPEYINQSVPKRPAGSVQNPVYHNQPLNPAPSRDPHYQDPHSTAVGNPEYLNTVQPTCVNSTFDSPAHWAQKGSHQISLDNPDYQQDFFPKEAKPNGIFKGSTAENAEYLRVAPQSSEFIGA
Method: Method A: Rabbit Reticulocyte Lysate Assay Design: KinaseSeeker is a homogeneous competition binding assay where the displacement of an active site dependent probe by an inhibitor is measured by a change in luminescence signal. Luminescence readout translates into a highly sensitive and robust assay with low background and minimal interference from test compounds.
10 mM stock solutions of test compounds were serially diluted in DMSO to make assay stocks. Prior to initiating IC50 determinations, the test compounds were evaluated for false positive against split-luciferase.
Each test compound was screened in duplicate against target kinase i.e. EGFR (L858R) at 7 different concentrations. For kinase assays, Cfluc-kinase was translated along with Fos-Nfluc using a cell-free system (rabbit reticulocyte lysate) at 30° C. for 90 min. […] 80 uL of luciferin assay reagent was added to each solution and luminescence was immediately measured on a luminometer.
The % Inhibition and % Activity Remaining was calculated using the following equation: % Inhibition=[(ALUControl=ALUSample)/ALUControl]×100 % Activity Remaining=100−% Inhibition
The % Activity was plotted against compound concentration and the IC50 was determined for each compound using a 7-point curve (Jester, B. W.; et. al. J. Am. Chem. Soc. 2010, 132, 11727-11735. Jester, B. W.; et. al. J. Med. Chem. 2012, 55, 1526-1537). […]
Compound O=C(C[C@@H]1CCSS1)Nc1c(Nc2ccc(OCc3cccc(F)c3)c(Cl)c2)ncnc1OC[C@H](O)CO [Example 24, N-(4-((3-chloro-4-((3-fluorobenzyl)oxy)phenyl)amino)-6-((R)-2,3-dihydroxypropoxy)pyrimidin-5-yl)-2-((R)-1,2-dithiolan-3-yl)acetamide] has an IC50 greater than 10000 nM.
For CCOc1ncnc(Nc2ccc(OCc3cccc(F)c3)c(Cl)c2)c1NC(=O)CC1CCSS1 (centres unmarked) [Example 20], the IC50 was 1000 to 10000 nM.

These compounds were tested against T2, EGFR T790M (Homo sapiens, UniProt P00533, T790M) (assay: KINOMEscan competition binding kinase assay, Kd (Method B)). Conditions: Method B (Kd values).
T2 construct: made in house; host or cells: T7 phage in E. coli (BL21-derived) or HEK-293 cells
T2 sequence (P00533 25-1210 T790M): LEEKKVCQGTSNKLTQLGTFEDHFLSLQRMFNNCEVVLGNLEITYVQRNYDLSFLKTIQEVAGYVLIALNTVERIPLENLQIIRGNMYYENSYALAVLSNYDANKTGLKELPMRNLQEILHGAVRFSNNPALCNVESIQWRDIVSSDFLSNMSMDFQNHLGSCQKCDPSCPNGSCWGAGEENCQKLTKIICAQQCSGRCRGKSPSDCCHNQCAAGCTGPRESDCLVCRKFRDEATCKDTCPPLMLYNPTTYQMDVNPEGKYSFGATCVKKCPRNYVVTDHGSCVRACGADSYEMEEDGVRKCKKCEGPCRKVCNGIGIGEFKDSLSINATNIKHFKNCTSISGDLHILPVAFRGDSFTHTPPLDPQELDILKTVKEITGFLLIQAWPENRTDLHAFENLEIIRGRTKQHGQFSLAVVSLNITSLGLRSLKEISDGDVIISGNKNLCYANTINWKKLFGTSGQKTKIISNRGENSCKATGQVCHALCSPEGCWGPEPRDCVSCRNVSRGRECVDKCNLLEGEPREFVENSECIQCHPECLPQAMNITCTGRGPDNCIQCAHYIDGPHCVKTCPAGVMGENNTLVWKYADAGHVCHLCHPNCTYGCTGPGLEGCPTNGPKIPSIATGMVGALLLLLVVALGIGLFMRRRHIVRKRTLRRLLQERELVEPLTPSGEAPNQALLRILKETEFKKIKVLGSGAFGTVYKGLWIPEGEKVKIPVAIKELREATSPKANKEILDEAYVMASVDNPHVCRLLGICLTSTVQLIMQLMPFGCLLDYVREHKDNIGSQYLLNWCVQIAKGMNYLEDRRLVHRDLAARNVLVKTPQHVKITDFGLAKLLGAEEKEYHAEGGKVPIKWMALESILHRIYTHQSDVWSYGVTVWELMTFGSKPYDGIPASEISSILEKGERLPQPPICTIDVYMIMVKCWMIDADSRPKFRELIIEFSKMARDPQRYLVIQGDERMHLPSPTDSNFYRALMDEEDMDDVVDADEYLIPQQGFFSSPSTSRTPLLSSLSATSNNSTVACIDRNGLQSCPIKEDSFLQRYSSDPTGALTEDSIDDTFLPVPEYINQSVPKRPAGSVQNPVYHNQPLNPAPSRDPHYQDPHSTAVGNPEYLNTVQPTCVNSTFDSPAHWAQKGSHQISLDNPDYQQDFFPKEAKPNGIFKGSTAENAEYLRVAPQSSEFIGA
Method: The assay is performed by combining three components: DNA-tagged kinase; immobilized ligand; and a test compound. The ability of the test compound to compete with the immobilized ligand is measured via quantitative PCR of the DNA tag.
For most assays, kinase-tagged T7 phage strains were prepared in an E. coli host derived from the BL21 strain. E. coli were grown to log-phase and infected with T7 phage and incubated with shaking at 32° C. until lysis. The lysates were centrifuged and filtered to remove cell debris. The remaining kinases were produced in HEK-293 cells and subsequently tagged with DNA for qPCR detection. Streptavidin-coated magnetic beads were treated with biotinylated small molecule ligands for 30 minutes at room temperature to generate affinity resins for kinase assays. The liganded beads were blocked with excess biotin and washed with blocking buffer (SeaBlock (Pierce), 1% BSA, 0.05% Tween 20, 1 mM DTT) to remove unbound ligand and to reduce non-specific binding. […] All reactions were performed in polystyrene 96-well plates in a final volume of 0.135 ml. […] The kinase concentration in the eluates was measured by qPCR.
COc1cc(N(C)CCN(C)C)c(NC(=O)C2CSSC2)cc1Nc1nccc(-c2cn(C)c3ccccc23)n1 [Example 29, N-(2-((2-(dimethylamino)ethyl)(methyl)amino)-4-methoxy-5-((4-(1-methyl-1H-indol-3-yl)pyrimidin-2-yl)amino)phenyl)-1,2-dithiolane-4-carboxamide] was tested, and the Kd was 100 to 999 nM.
COc1cc(N2CCN(C)CC2)ccc1Nc1ncc(Cl)c(Nc2cccc(NC(=O)C3CSSC3)c2)n1 [Example 41, N-(3-((5-chloro-2-((2-methoxy-4-(4-methylpiperazin-1-yl)phenyl)amino)pyrimidin-4-yl)amino)phenyl)-1,2-dithiolane-4-carboxamide] gave a Kd of 1 to 99 nM.
For COc1cc(N2CCN(C)CC2)ccc1Nc1ncc(Cl)c(Oc2cccc(NC(=O)C(CSC(C)=O)CSC(C)=O)c2)n1 [Example 35, S,S′-(2-((3-((5-chloro-2-((2-methoxy-4-(4-methylpiperazin-1-yl)phenyl)amino)pyrimidin-4-yl)oxy)phenyl)carbamoyl)propane-1,3-diyl)diethanethioate], the Kd was greater than 10000 nM.
In the case of COc1cc(N(C)CCN(C)C)c(NC(=O)C(CSC(C)=O)CSC(C)=O)cc1Nc1nccc(-c2cn(C)c3ccccc23)n1 [Example 28, S,S′-(2-((2-((2-(dimethylamino)ethyl)(methyl)amino)-4-methoxy-5-((4-(1-methyl-1H-indol-3-yl)pyrimidin-2-yl)amino)phenyl)carbamoyl)propane-1,3-diyl)diethanethioate], the Kd is reported as 100 to 999 nM.
COc1cc(N2CCN(C)CC2)ccc1Nc1ncc(Cl)c(Nc2cccc(NC(=O)C(CSC(C)=O)CSC(C)=O)c2)n1 [Example 40, S,S′-(2-((3-((5-chloro-2-((2-methoxy-4-(4-methylpiperazin-1-yl)phenyl)amino)pyrimidin-4-yl)amino)phenyl)carbamoyl)propane-1,3-diyl)diethanethioate] showed a Kd of 100 to 999 nM.
COc1cc(N2CCN(C)CC2)ccc1Nc1ncc(Cl)c(Oc2cccc(NC(=O)C3CSSC3)c2)n1 [Example 36, N-(3-((5-chloro-2-((2-methoxy-4-(4-methylpiperazin-1-yl)phenyl)amino)pyrimidin-4-yl)oxy)phenyl)-1,2-dithiolane-4-carboxamide] was tested, and the Kd was 1000 to 10000 nM.
